Measurements taken from patent publication US12275731B2, “Azaindole inhibitors of wild-type and mutant forms of LRRK2” (DANA-FARBER CANCER INSTITUTE, INC., priority 2018, dated 2025).

Tests used:
Assay in all cases: KinomeScan profiling
Type in all cases: binding
PIK3CA(Q546K) = target: T1, PIK3CA(Q546K) (Homo sapiens, UniProt P42336, Q546K); conditions: read-out: % control
T1 construct: purchased KinomeScan® (panel service)
In short: (§1)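 Compounds were screened at 1 μM in DMSO across a 468-kinase KinomeScan panel. Binding was expressed as % control, scaled between a positive control (0%) and DMSO (100%) using luminescence signal. A value under 35% counted as active.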

PRKCH = PRKCH (Homo sapiens, UniProt P24723); conditions: read-out: % control
In short: as §1

[1] = target: T2, RPS6KA4(Kin.Dom.1-N-terminal) (Homo sapiens, UniProt O75676); conditions: read-out: % control
T2 construct: RPS6KA4(Kin.Dom.1-N-terminal)
T2 sequence (O75676 33-301 limits assumed): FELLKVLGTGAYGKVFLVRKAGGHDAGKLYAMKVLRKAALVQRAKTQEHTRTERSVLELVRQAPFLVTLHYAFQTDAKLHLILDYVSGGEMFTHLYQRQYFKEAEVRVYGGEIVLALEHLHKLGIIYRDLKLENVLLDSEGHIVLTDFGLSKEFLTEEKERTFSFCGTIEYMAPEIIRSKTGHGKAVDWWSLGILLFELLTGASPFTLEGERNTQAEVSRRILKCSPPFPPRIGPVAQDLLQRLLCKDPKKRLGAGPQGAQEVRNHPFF
In short: as §1

DDR1 = DDR1 (Homo sapiens, UniProt Q08345); conditions: DDR1, 1 μM; read-out: % control
In short: as §1

ABL1-phosphorylated = target: T3, ABL1-phosphorylated (Homo sapiens, UniProt P00519); conditions: read-out: % control
T3 construct: purchased KinomeScan®
In short: as §1

JNK1 = target: T4, JNK1 (Homo sapiens, UniProt P45983); conditions: JNK1, 1 μM; read-out: % control
T4 construct: purchased KinomeScan®
In short: as §1

NEK11 = target: T5, NEK11 (Homo sapiens, UniProt Q8NG66); conditions: NEK11, 1 μM; read-out: % control
T5 sequence (Q8NG66 1-645): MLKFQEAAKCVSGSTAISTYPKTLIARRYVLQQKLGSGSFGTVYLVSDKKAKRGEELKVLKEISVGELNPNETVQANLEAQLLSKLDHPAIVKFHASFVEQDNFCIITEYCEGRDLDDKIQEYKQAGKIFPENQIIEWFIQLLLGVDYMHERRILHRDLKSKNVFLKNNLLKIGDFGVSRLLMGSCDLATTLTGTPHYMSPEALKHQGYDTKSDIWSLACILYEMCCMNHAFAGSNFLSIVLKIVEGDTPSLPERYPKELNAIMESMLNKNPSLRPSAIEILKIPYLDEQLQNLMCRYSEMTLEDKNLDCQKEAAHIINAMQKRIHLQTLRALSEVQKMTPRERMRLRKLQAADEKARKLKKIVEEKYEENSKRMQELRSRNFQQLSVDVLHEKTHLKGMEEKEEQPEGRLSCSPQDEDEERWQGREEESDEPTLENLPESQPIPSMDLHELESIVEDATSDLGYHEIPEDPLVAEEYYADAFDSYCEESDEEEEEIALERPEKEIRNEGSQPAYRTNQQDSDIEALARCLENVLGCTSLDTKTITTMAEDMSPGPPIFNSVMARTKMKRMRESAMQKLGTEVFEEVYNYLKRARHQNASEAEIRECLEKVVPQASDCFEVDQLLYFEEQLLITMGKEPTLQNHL
In short: as §1

IKK-epsilon = target: T6, IKK-epsilon (Homo sapiens, UniProt Q14164); conditions: read-out: % control
T6 construct: purchased KinomeScan®
T6 sequence (Q14164 1-716): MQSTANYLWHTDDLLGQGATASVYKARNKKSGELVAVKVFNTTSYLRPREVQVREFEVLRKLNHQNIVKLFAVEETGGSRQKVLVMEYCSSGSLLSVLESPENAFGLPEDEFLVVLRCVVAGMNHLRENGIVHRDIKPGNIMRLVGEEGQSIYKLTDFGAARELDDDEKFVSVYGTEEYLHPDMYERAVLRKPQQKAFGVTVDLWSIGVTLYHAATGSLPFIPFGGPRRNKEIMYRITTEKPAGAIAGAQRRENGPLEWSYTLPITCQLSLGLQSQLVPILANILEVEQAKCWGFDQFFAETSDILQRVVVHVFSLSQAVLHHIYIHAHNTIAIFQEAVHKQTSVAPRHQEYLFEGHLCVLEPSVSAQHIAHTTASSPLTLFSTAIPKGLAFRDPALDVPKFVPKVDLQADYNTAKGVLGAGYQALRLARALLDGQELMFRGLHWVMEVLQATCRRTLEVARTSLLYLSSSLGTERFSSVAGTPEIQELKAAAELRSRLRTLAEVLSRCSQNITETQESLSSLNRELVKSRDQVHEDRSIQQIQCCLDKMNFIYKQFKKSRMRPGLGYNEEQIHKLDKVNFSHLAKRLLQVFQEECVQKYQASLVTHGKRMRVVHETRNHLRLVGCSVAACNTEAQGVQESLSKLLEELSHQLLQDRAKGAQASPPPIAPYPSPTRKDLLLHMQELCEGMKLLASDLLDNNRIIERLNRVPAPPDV
In short: as §1

WEE1 = WEE1 (Homo sapiens, UniProt P30291); conditions: WEE1, 1 μM; read-out: % control
In short: as §1

DMPK2 = DMPK2 (Homo sapiens, UniProt Q6DT37); conditions: DMPK2, 1 μM; read-out: % control
In short: as §1

EGFR(L858R) = EGFR(L858R) (Homo sapiens, UniProt P00533, L858R); conditions: read-out: % control
In short: as §1

T3 sequence (P00519 whole entry): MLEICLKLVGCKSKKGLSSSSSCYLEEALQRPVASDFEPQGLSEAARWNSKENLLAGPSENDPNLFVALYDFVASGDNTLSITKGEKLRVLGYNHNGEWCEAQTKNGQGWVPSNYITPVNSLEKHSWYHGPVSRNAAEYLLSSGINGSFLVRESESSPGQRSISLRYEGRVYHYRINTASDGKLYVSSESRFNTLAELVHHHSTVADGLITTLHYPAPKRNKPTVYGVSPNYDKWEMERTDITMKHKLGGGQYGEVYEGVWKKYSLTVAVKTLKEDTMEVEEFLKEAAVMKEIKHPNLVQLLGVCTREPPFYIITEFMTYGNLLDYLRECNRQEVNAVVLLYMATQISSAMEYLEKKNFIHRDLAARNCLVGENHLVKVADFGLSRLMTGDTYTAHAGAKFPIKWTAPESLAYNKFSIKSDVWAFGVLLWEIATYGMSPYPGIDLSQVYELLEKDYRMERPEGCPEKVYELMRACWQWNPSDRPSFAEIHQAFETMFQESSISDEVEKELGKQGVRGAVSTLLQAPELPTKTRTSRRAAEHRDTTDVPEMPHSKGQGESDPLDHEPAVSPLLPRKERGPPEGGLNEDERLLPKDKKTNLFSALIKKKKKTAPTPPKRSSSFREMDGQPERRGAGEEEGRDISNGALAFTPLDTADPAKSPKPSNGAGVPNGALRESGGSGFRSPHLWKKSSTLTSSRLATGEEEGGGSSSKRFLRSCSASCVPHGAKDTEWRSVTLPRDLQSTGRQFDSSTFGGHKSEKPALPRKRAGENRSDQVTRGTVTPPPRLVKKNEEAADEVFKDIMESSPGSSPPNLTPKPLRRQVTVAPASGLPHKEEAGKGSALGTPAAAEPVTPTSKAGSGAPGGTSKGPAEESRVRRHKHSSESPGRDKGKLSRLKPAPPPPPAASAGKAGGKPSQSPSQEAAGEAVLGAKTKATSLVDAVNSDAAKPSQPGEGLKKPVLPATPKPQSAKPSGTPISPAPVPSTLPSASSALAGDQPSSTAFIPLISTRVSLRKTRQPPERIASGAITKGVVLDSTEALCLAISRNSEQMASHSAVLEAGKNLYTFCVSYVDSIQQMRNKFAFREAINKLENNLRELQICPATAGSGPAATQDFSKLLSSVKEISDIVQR
Chain of EGFR(L858R) (P00533 25-1210 L858R): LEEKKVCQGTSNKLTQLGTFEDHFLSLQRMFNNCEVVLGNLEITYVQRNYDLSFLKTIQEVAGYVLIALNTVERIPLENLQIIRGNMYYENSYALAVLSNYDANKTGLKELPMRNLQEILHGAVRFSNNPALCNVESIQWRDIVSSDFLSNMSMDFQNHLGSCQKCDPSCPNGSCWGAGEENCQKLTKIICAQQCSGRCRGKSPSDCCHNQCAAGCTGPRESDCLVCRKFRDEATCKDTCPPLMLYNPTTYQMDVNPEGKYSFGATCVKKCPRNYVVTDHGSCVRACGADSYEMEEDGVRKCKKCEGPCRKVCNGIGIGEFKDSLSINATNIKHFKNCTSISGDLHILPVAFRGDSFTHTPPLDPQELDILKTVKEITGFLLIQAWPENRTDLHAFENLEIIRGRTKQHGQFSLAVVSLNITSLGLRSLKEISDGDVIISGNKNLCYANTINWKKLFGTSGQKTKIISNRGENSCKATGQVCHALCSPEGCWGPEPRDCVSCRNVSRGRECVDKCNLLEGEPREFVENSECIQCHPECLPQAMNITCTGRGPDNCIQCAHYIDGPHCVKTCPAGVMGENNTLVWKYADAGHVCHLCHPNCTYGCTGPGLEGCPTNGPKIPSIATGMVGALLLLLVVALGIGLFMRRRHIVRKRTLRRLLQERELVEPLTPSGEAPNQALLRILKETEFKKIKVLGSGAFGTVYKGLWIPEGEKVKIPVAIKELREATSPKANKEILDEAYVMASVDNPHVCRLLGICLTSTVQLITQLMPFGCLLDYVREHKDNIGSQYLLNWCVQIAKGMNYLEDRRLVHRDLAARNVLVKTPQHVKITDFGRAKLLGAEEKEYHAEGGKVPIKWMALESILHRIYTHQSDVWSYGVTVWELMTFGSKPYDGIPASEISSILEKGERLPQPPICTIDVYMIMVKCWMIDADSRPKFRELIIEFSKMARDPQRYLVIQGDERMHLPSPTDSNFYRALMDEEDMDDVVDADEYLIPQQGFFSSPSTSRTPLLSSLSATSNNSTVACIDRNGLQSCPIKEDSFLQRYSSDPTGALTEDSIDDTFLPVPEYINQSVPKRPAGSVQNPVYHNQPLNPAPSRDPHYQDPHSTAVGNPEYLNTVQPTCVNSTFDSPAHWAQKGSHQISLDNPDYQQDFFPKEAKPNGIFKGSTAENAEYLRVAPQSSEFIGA
Chain of WEE1 (P30291 whole entry): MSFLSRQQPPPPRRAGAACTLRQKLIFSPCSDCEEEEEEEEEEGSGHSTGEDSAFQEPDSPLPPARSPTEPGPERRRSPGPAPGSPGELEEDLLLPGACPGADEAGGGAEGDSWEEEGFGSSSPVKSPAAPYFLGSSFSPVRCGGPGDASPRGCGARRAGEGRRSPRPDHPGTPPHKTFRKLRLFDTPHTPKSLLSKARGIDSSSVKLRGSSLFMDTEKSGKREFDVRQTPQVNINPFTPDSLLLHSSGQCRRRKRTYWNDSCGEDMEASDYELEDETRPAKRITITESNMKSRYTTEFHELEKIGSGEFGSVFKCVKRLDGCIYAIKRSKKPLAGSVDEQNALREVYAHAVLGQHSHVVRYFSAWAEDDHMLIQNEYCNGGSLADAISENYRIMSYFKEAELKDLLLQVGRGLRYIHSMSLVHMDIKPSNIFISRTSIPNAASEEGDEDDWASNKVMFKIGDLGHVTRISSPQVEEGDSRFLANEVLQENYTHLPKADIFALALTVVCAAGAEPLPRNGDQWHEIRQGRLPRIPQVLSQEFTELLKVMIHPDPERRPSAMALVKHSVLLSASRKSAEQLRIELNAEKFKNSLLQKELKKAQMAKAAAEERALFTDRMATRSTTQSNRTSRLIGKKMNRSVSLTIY
T4 sequence (P45983 whole entry): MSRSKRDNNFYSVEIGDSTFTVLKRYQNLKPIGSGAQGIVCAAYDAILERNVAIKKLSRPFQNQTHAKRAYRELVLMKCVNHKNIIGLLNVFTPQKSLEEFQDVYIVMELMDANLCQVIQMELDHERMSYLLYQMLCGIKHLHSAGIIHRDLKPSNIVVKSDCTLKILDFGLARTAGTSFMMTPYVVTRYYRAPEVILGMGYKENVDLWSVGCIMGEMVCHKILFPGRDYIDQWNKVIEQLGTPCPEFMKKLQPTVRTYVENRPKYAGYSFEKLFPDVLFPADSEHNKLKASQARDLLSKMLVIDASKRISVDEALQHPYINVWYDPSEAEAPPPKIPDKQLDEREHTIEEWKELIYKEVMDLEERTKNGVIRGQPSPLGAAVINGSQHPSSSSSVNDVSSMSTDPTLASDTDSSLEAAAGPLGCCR
Chain of DDR1 (Q08345 19-913): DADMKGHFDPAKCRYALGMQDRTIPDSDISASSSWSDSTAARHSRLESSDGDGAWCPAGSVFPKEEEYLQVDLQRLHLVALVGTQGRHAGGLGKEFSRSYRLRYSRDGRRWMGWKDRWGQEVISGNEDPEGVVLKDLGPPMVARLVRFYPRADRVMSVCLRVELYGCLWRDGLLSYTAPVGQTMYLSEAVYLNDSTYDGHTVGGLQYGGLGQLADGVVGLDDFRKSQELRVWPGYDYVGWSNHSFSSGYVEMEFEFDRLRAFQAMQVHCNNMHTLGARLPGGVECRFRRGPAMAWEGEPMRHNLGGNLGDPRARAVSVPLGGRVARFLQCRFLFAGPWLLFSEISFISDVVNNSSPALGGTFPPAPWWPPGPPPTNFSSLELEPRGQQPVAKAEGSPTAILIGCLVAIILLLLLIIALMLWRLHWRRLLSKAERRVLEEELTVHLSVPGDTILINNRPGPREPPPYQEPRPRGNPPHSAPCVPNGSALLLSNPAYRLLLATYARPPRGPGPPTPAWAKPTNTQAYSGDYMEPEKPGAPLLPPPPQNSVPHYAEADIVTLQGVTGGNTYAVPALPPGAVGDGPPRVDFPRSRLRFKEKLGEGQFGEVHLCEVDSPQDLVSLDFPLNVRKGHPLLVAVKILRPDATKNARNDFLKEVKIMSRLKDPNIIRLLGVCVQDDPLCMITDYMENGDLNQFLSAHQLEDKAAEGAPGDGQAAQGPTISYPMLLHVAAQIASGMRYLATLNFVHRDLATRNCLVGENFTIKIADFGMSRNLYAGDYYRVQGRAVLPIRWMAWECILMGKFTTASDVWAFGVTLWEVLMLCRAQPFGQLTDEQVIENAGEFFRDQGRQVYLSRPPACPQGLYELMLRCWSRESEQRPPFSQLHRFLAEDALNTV
Chain of PRKCH (P24723 whole entry): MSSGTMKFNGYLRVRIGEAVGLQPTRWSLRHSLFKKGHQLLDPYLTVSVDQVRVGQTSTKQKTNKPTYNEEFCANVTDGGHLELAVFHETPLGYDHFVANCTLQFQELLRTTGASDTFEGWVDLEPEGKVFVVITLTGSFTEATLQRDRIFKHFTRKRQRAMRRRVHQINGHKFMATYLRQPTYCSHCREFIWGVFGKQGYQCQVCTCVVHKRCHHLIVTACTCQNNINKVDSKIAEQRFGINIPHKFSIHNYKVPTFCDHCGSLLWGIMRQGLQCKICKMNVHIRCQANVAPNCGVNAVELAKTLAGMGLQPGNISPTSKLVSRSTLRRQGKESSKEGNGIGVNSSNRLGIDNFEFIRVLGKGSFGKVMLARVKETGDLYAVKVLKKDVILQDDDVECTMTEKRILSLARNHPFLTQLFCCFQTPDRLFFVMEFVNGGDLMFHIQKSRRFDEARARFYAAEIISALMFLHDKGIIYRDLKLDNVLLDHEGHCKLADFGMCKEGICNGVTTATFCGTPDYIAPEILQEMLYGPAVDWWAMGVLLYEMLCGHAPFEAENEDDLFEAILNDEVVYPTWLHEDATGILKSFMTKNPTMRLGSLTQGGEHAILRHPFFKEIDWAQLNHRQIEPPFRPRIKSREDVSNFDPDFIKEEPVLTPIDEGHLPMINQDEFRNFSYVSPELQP

Structure (SMILES) | remaining binding at 1 µM (PIK3CA(Q546K)) [%] | remaining binding at 1 µM (PRKCH) [%] | remaining binding at 1 µM [1] [%] | remaining binding at 1 µM (DDR1) [%] | remaining binding at 1 µM (ABL1-phosphorylated) [%] | remaining binding at 1 µM (JNK1) [%] | remaining binding at 1 µM (NEK11) [%] | remaining binding at 1 µM (IKK-epsilon) [%] | remaining binding at 1 µM (WEE1) [%] | remaining binding at 1 µM (DMPK2) [%] | remaining binding at 1 µM (EGFR(L858R)) [%]
CNc1c(-c2cnn([C@H]3CCN(C(C)=O)C[C@@H]3F)c2)cnc2[nH]cc(Cl)c12 [Compound 77, 1-((3S,4S)-4-(4-(3-chloro-4-(methylamino)-1H-pyrrolo[2,3-b]pyridin-5-yl)-1H-pyrazol-1-yl)-3-fluoropiperidin-1-yl)ethan-1-one] | 100 | 83 | 97 | 100 | 62 | 1.1 | 97 | 64 | 97 | 80 | 100
CNc1c(-c2ccc(C(=O)N3CCC(N4CCOCC4)CC3)cc2)cnc2[nH]cc(Cl)c12 [Compound 96, (4-(3-chloro-4-(methylamino)-1H-pyrrolo[2,3-b]pyridin-5-yl)phenyl)(4-morpholinopiperidin-1-yl)methanone] | 100 | 92 | 100 | 100 | 88 | 0.05 | 96 | 68 | 88 | 91 | 100
O=C(c1ccc(-c2cnc3[nH]cc(Cl)c3c2NC2CCCC2)cc1)N1CCC(N2CCOCC2)CC1 [Compound 101, (4-(3-chloro-4-(cyclopentylamino)-1H-pyrrolo[2,3-b]pyridin-5-yl)phenyl)(4-morpholinopiperidin-1-yl)methanone] | 93 | 73 | 84 | 61 | 97 | 7.1 | 100 | 99 | 100 | 100 | 96
